Data: article PMC11997307, “Rat Sarcoma (RAS)-Protein-Targeting Synthetic Cell-Penetrating Peptide as an Anticancer Biomaterial” (Biomaterials Research, 2025)

Key:
Type in all cases: cell-based, human
HCT-116 cells = assay: Cell viability, CCK-8 assay, HCT-116; conditions: HCT-116 (KRAS G13D), CCK-8, 0-1,000 μM RBP, 24, 48 or 72 h, triplicate
Method: (§1) The viability of the cells was determined via Cell Counting Kit-8 (CCK-8; Dojindo Laboratories, Kumamoto, Japan) assay. The cells were plated in 96-well culture plates at a density of 5 × 10^3 cells per well and incubated for 24 h at 37 °C in a humidified incubator with 5% CO2. […] After incubation, the medium was replaced with fresh medium containing 10% (v/v) CCK-8 reagent, and the cells were incubated for 2 h. Absorbance was measured at 450 nm using a microplate reader. All experiments were performed in triplicate.

MCF-7 cells = assay: Cell viability, CCK-8 assay, MCF-7; conditions: MCF-7 (KRAS wild-type), CCK-8, 0-1,000 μM RBP, 24, 48 or 72 h, triplicate
Method: as §1

[1] = test system: phospho-c-RAF and phospho-ERK1/2 in HCT-116 cells; assay: Western blot of RAS-MAPK pathway, HCT-116; conditions: HCT-116, 10-250 μM RBP 6 h then 50 ng/ml EGF 10 min
Method: (§2) Protein expression was confirmed via Western blot analysis. Briefly, 9 × 10^5 cells were cultured in 100-mm-diameter dishes. When they reached 90% confluence, the cells were starved for 18 h in serum-free medium. […] At the end of the culture period, the cells were lysed for 20 min in cold lysis buffer on ice. Protein concentration was measured using bicinchoninic acid protein assays (Thermo Fisher Scientific, MA, USA). Equal aliquots of protein (40 μg) were boiled for 7 min in 5× sample buffer and separated by 10% SDS–PAGE. Proteins were transferred onto nitrocellulose membranes, followed by washing with Tris-buffered saline (TBS) containing 0.1% Tween 20 (TBST). The membranes were then blocked for 60 min at room temperature with 5% skim milk in TBST. Following the washing procedure, the membranes were incubated with primary antibodies (RAS, phospho-ERK1/2, ERK1/2, phospho-RAF proto-oncogene serine/threonine-protein kinase [phospho-c-RAF; S338], c-RAF [Cell Signaling Technology, Beverly, MA, USA], and GAPDH [Santa Cruz Biotechnology, Inc., Santa Cruz, CA, USA]) diluted in TBST containing 5% skim milk at 4 °C for 18 h. […] The membranes were subsequently washed 3 more times, and protein bands were detected using chemiluminescence reagents (West Pico PLUS, Thermo Fisher Scientific, USA).

[2] = test system: phospho-c-RAF and phospho-ERK1/2 in MCF-7 cells; assay: Western blot of RAS-MAPK pathway, MCF-7; conditions: MCF-7, 10-250 μM RBP 6 h then 50 ng/ml EGF 10 min
Method: as §2

Structure (SMILES): C[C@@H](O)[C@H](NC(=O)[C@H](CO)NC(=O)[C@H](CS)NC(=O)[C@H](CCCCN)NC(=O)CN)C(=O)N[C@@H](CCCNC(=N)N)C(=O)NCC(=O)N[C@@H](CCCNC(=N)N)C(=O)N[C@@H](CCCCN)C(=O)N[C@@H](CS)C(=O)N[C@@H](CS)C(=O)N[C@@H](CCCNC(=N)N)C(=O)N[C@@H](CCCNC(=N)N)C(=O)N[C@@H](CCCCN)C(=O)N[C@@H](CCCCN)C(N)=O [RBP]
- percentage of viable cells (HCT-116 cells): reduced the percentage of viable KRAS G13D mutant cells in a dose-dependent manner
- decrease in the percentage of viable cells (MCF-7 cells): not significant
- activation of RAF (phospho-c-RAF) [1]: effectively inhibited
- phosphorylation of ERK1/2 ([1]; p-ERK/ERK, n = 3): effectively inhibited
- RAF activation [2]: did not inhibit
- ERK1/2 phosphorylation ([2]; n = 3): did not inhibit
